The structures appear in SMILES notation.

The record followed here is patent publication US10604526B2, “Chemokine receptor modulators and uses thereof” (RAPT THERAPEUTICS, INC., priority 2016, dated 2020).

In this assay the target is T1, hCCR4 (Homo sapiens, UniProt P51679).
T1 sequence (P51679 1-360): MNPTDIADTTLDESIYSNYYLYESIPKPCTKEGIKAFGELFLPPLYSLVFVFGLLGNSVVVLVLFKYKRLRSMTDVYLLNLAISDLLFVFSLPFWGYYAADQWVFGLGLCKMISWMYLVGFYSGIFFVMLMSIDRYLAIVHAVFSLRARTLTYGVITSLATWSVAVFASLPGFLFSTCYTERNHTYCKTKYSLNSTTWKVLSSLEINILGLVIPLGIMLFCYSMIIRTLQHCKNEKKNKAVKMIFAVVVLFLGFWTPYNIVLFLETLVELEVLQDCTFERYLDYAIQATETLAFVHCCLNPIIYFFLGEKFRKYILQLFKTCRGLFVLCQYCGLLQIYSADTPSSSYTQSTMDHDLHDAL
As to the kind of experiment: Calcium flux assay. It is filed as cell-based. The following applies: Chem5-hCCR4 cells, CCL22 at EC80 of 1.5 nM, FLIPR Calcium 6 dye; read-out: Potency (IC50). In outline: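 Chem5 cells expressing hCCR4 were serum-starved for 2 h, loaded with Calcium 6 dye plus 2.5 mM probenecid, then given compound for 1 h at 37 °C (0.5% DMSO). CCL22 was added from a 7.5 nM working solution (5× EC80 of 1.5 nM). IC50 came from ΔF/Fmin (485/525 nm) by 4-parameter fit.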
`CC(O)CN1CCC[C@H](C2CN(c3cnc4c(C#N)nn([C@H](C)c5ccc(Cl)cc5Cl)c4n3)C2)C1` (single isomer, unassigned) [Example 29]: the IC50 is less than 100 nM.
For the compound `CC(O)CN1CCC[C@@H](C2CN(c3cnc4c(C#N)nn([C@H](C)c5ccc(Cl)cc5Cl)c4n3)C2)C1` (single isomer, unassigned) [Example 30], the IC50 was less than 100 nM.
With `CC(O)CN1CCC[C@@H](C2CN(c3cnc4c(C#N)nn([C@H](C)c5ccc(Cl)cc5Cl)c4n3)C2)C1` (single isomer, unassigned) [Example 31] the figure was less than 100 nM.
The value for `C[C@H](c1ccc(Cl)cc1Cl)n1nc(C(N)=O)c2ncc(N3CC([C@@H]4CCCN(CCCC(=O)O)C4)C3)nc21` (single isomer, unassigned) [Example 32] was 100 to 500 nM.
The value for `C[C@H](c1ccc(Cl)cc1Cl)n1nc(C(N)=O)c2ncc(N3CC([C@H]4CCCN(CCCC(=O)O)C4)C3)nc21` (single isomer, unassigned) [Example 33] was less than 100 nM; that for `C[C@H](c1ccc(Cl)cc1Cl)n1nc(C#N)c2ncc(N3CC(C4CCCN(CCO)C4)C3)nc21` (single isomer, unassigned) [Example 35] was less than 100 nM.
As for `CC(c1ccc(Cl)cc1Cl)n1nc(C#N)c2ncc(N3CC([C@@H]4CCCN(CCO)C4)C3)nc21` (single isomer, unassigned) [Example 36], the IC50 was less than 100 nM.
For the compound `Cc1nn([C@H](C)c2ccc(Cl)cc2Cl)c2nc(N3CC([C@H]4CCCN(CCO)C4)C3)ncc12` (single isomer, unassigned) [Example 38], the IC50 was less than 100 nM.
For `Cc1nn([C@H](C)c2ccc(Cl)cc2Cl)c2nc(N3CC([C@@H]4CCCN(CCO)C4)C3)ncc12` (single isomer, unassigned) [Example 39], the IC50 is greater than 500 nM.
With `C[C@H](c1ccc(Cl)cc1Cl)n1nc(C(F)(F)F)c2ncc(N3CC([C@H]4CCCN(CCO)C4)C3)nc21` (single isomer, unassigned) [Example 43], the IC50 was less than 100 nM.
`C[C@H](c1ccc(Cl)cc1Cl)n1nc(C(F)(F)F)c2ncc(N3CC([C@@H]4CCCN(CCO)C4)C3)nc21` (single isomer, unassigned) [Example 44]: the half-maximal inhibitory concentration (IC50) is 100 to 500 nM.
The value for `CC(C)C(=O)NCCN1CCC[C@@H](C2CN(c3cnc4c(C(F)(F)F)nn([C@H](C)c5ccc(Cl)cc5Cl)c4n3)C2)C1` (single isomer, unassigned) [Example 51] was 100 to 500 nM; that for `CC(C)C(=O)NCCN1CCC[C@H](C2CN(c3cnc4c(C(F)(F)F)nn([C@H](C)c5ccc(Cl)cc5Cl)c4n3)C2)C1` (single isomer, unassigned) [Example 52] was less than 100 nM.
With `CC(=O)NCCN1CCC[C@@H](C2CN(c3cnc4c(C(F)(F)F)nn([C@H](C)c5ccc(Cl)cc5Cl)c4n3)C2)C1` (single isomer, unassigned) [Example 53] the figure was 100 to 500 nM.
As for `CC(=O)NCCN1CCC[C@H](C2CN(c3cnc4c(C(F)(F)F)nn([C@H](C)c5ccc(Cl)cc5Cl)c4n3)C2)C1` (single isomer, unassigned) [Example 54], the IC50 was less than 100 nM.
With `CNC(=O)CCCN1CCC[C@@H](C2CN(c3cnc4c(C#N)nn([C@H](C)c5ccc(Cl)cc5Cl)c4n3)C2)C1` (single isomer, unassigned) [Example 68] the figure was 100 to 500 nM; with `CNC(=O)CCCN1CCC[C@H](C2CN(c3cnc4c(C#N)nn([C@H](C)c5ccc(Cl)cc5Cl)c4n3)C2)C1` (single isomer, unassigned) [Example 69], less than 100 nM; with `C[C@H](c1ccc(Cl)cc1Cl)n1nc(C#N)c2ncc(N3CC([C@@H]4CCCN(CC(C)(C)O)C4)C3)nc21` (single isomer, unassigned) [Example 70], less than 100 nM.
The value for `C[C@H](c1ccc(Cl)cc1Cl)n1nc(C#N)c2ncc(N3CC([C@H]4CCCN(CC(C)(C)O)C4)C3)nc21` (single isomer, unassigned) [Example 71] was less than 100 nM.
The value for `CCCN1CCC[C@@H](C2CN(c3cnc4c(C#N)nn([C@H](C)c5ccc(Cl)cc5Cl)c4n3)C2)C1` (single isomer, unassigned) [Example 72] was 100 to 500 nM; that for `CCCN1CCC[C@H](C2CN(c3cnc4c(C#N)nn([C@H](C)c5ccc(Cl)cc5Cl)c4n3)C2)C1` (single isomer, unassigned) [Example 73] was less than 100 nM.
In the case of `C[C@H](c1ccc(Cl)cc1Cl)n1nc(C#N)c2ncc(N3CC([C@@H]4CCCN(CCCC(=O)N(C)C)C4)C3)nc21` (single isomer, unassigned) [Example 74], the IC50 fell in the range of 100 to 500 nM.
With `C[C@H](c1ccc(Cl)cc1Cl)n1nc(C#N)c2ncc(N3CC([C@H]4CCCN(CCCC(=O)N(C)C)C4)C3)nc21` (single isomer, unassigned) [Example 75] the figure was less than 100 nM; with `CC(C)N1CCC[C@@H](C2CN(c3cnc4c(C#N)nn([C@H](C)c5ccc(Cl)cc5Cl)c4n3)C2)C1` (single isomer, unassigned) [Example 76], 100 to 500 nM; with `CC(C)N1CCC[C@H](C2CN(c3cnc4c(C#N)nn([C@H](C)c5ccc(Cl)cc5Cl)c4n3)C2)C1` (single isomer, unassigned) [Example 77], less than 100 nM.
The value for `C[C@H](c1ccc(Cl)cc1Cl)n1nc(C#N)c2ncc(N3CC([C@H]4CCCN(CCCC(N)=O)C4)C3)nc21` (single isomer, unassigned) [Example 78] was less than 100 nM.
Regarding `C[C@H](c1ccc(Cl)cc1Cl)n1nc(C#N)c2ncc(N3CC([C@@H]4CCCN(CCCC(N)=O)C4)C3)nc21` (single isomer, unassigned) [Example 79], the IC50 lay within 100 to 500 nM.
On to `C[C@H](c1ccc(Cl)cc1Cl)n1nc(C#N)c2ncc(N3CC([C@H]4CCCN(Cc5ncc[nH]5)C4)C3)nc21` (single isomer, unassigned) [Example 80], for which the IC50 was less than 100 nM.
For `C[C@H](c1ccc(Cl)cc1Cl)n1nc(C#N)c2ncc(N3CC([C@@H]4CCCN(Cc5ncc[nH]5)C4)C3)nc21` (single isomer, unassigned) [Example 81], the IC50 is 100 to 500 nM.
As for `COC(=O)NCCN1CCC[C@H](C2CN(c3cnc4c(C)nn([C@H](C)c5ccc(Cl)cc5Cl)c4n3)C2)C1` (single isomer, unassigned) [Example 84], the IC50 is less than 100 nM.
Consider `COC(=O)NCCN1CCC[C@@H](C2CN(c3cnc4c(C)nn([C@H](C)c5ccc(Cl)cc5Cl)c4n3)C2)C1` (single isomer, unassigned) [Example 85], for which the IC50 is less than 100 nM.
The value for `CC(=O)NCCN1CCC[C@@H](C2CN(c3cnc4c(C(F)(F)F)nn([C@H](C)c5ccc(Cl)cc5Cl)c4n3)C2)C1` (single isomer, unassigned) [Example 86] was 100 to 500 nM; that for `CC(=O)NCCN1CCCC(C2CN(c3cnc4c(C(F)(F)F)nn([C@H](C)c5ccc(Cl)cc5Cl)c4n3)C2)C1` (single isomer, unassigned) [Example 87] was less than 100 nM; that for `CC(C)C(=O)NCCN1CCC[C@@H](C2CN(c3cnc4c(C(F)(F)F)nn([C@H](C)c5ccc(Cl)cc5Cl)c4n3)C2)C1` (single isomer, unassigned) [Example 88] was 100 to 500 nM.
For `CC(C)C(=O)NCCN1CCC[C@H](C2CN(c3cnc4c(C(F)(F)F)nn([C@H](C)c5ccc(Cl)cc5Cl)c4n3)C2)C1` (single isomer, unassigned) [Example 89], the concentration for half-maximal inhibition (IC50) is less than 100 nM.
For `Cc1nn([C@H](C)c2ccc(Cl)cc2Cl)c2nc(N3CC([C@H]4CCCN(CCNC(=O)C(C)C)C4)C3)cnc12` (single isomer, unassigned) [Example 90], the IC50 was less than 100 nM.
For `Cc1nn([C@H](C)c2ccc(Cl)cc2Cl)c2nc(N3CC([C@@H]4CCCN(CCNC(=O)C(C)C)C4)C3)cnc12` (single isomer, unassigned) [Example 91], the concentration for half-maximal inhibition (IC50) was less than 100 nM.
For `CC(=O)NCCN1CCC[C@H](C2CN(c3cnc4c(C#N)nn([C@H](C)c5ccc(Cl)cc5Cl)c4n3)C2)C1` (single isomer, unassigned) [Example 92], the IC50 is less than 100 nM.
Consider `CC(=O)NCCN1CCC[C@@H](C2CN(c3cnc4c(C#N)nn([C@H](C)c5ccc(Cl)cc5Cl)c4n3)C2)C1` (single isomer, unassigned) [Example 93], for which the IC50 was less than 100 nM.
With `C[C@H](c1ccc(Cl)cc1Cl)n1nc(C#N)c2ncc(N3CC([C@@H]4CCN(CCCO)C4)C3)nc21` (single isomer, unassigned) [Example 94], the IC50 is 100 to 500 nM.
Consider `C[C@H](c1ccc(Cl)cc1Cl)n1nc(C#N)c2ncc(N3CC([C@H]4CCN(CCCO)C4)C3)nc21` (single isomer, unassigned) [Example 95], for which the 50% inhibitory concentration (IC50) was less than 100 nM.
With `Cc1nn([C@H](C)c2ccc(Cl)cc2Cl)c2nc(N3CC([C@@H]4CCCN(CCNS(=O)(=O)C(C)C)C4)C3)cnc12` (single isomer, unassigned) [Example 96] the figure was 100 to 500 nM; with `Cc1nn([C@H](C)c2ccc(Cl)cc2Cl)c2nc(N3CC(C4CCCN(CCNS(=O)(=O)C(C)C)C4)C3)cnc12` (single isomer, unassigned) [Example 97], less than 100 nM.

The term IC50 denotes the concentration that inhibits the measured activity by half.
